Assay results taken from patent publication US20250034136A1 (Nimbus Wadjet, Inc., priority 2023, published 2025).
Like-named read-outs stand apart in the source and are kept apart here.

What was measured:
[1] = system: p21 induction in HCT116 cells; experiment: p21 induction in HCT116 cells; assay type: cell-based; conditions: Homo sapiens, HCT-116, 24 h, read-out: P21_EC50
Experimental: The colon carcinoma cell line HCT116 was obtained from ATCC and cultured in growth medium consisting of Mccoy's 5A Medium (Gibco 16600108) supplemented with 10% FBS (Transgene FS201-02) and 100 units/mL penicillin-streptomycin (Gibco 15140122) and maintained at 37° C. under 5% CO2. On the day of seeding, 2,000 cells in 30 μL of culture media were plated per well to Poly-D-Lysine 384 Well Black Clear Plates (Biocoat 356663) and incubated overnight at 37° C. under 5% CO2. The following day, compounds were serially diluted in DMSO for a total of 11 test concentrations. […] Next, 150 nL of diluted compound was added in duplicate to the assay plate, using an Echo 655 (Labcyte). The plate was centrifuged at 500 RPM for 1 min and then incubated at 37° C. under 5% CO2 for 24 h. After 24 h, medium was removed, and cells were fixed by adding 40 μL of 4% paraformaldehyde solution to each well and incubated for 20 min at room temperature. The plate was then washed 4 times with 100 μL per well of wash buffer (PBS with 0.1% Tween-20) using a microplate washer. Next, 30 μL of ice-cold methanol was added to each well and the plate was incubated at −20° C. for 10 min. The plate was washed 4 times with 100 μL per well of wash buffer by a microplate washer, then 30 μL per well of blocking buffer (Intercept PBS blocking buffer (LI-COR 927-70001) with 0.05% Tween-20) was added and the plate was incubated at room temperature with shaking for 2 h. Next, to each test well, 20 μL of primary antibody solution (p21 Waf1/CIP (12D1) RabbitmAb (Cell Signaling Technologies 2947) diluted 1:1000 and GAPDH (D4C6R) Mouse mAb (Cell Signaling Technologies 97166) diluted 1:2000 in blocking buffer) was added and the plate was placed at 4° C., overnight. The following day, the plate was washed 5 times with 100 μL per well of wash buffer using a microplate washer for 5 min. 20 μL per well of secondary antibody (IRDye 680CW Goat anti-Mouse IgG (H+L) (LI-COR 926-68070) diluted 1: 2000 in Blocking Buffer and IRDye 800CW Goat anti-Rabbit IgG (H+L) (LI-COR 926-32211) diluted 1: 2000 in Blocking Buffer) was then added and the plate was stored for 2 h in the dark at room temperature with shaking. The plate was then washed 4 times with 100 μL per well of wash buffer again using a microplate washer. Finally, the p21 signal and the GAPDH signal were quantified using a LI-COR Odyssey CLx Imager machine reading at 800 nm and 700 nm, respectively. Each plate contained DMSO control (low control) and an internal reference WRN inhibitor (high control) respectively. […] EC50 values for each compound were generated after non-linear regression curve fitting using commercially available software.

[2] = target: WRN (BV08), human Werner helicase (Uniprot Q14191, amino acids 517-1235 with L1074F point mutation) (Homo sapiens (Human), UniProt Q14191, L1074F); experiment: WRN (BV08) ADP-Glo assay; assay type: biochemical; conditions: class symbols A-E, read-out: ADP-Glo_hWRN_IC50
Sequence of WRN (BV08), human Werner helicase (Uniprot Q14191, amino acids 517-1235 with L1074F point mutation) (Q14191 other isoform, or with tags, fused parts or gaps L1074F (already in the parent)): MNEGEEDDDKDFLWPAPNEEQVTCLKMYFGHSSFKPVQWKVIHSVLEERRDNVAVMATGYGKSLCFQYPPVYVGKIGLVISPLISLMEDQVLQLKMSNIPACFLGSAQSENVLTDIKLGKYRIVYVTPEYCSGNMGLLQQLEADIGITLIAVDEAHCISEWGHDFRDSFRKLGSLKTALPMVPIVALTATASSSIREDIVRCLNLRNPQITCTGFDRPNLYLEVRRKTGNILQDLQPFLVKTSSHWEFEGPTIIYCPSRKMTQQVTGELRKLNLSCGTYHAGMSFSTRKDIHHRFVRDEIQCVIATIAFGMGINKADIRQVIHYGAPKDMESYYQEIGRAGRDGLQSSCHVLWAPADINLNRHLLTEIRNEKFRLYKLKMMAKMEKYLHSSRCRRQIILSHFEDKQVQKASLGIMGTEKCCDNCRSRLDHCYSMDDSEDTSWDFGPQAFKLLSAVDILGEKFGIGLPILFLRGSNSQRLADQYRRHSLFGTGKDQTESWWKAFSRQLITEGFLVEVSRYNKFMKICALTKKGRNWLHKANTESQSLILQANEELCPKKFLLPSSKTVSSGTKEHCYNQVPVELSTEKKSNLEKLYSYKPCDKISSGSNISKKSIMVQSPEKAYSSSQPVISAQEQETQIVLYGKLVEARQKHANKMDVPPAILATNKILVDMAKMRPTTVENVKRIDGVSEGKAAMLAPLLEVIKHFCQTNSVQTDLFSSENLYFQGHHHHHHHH
Experimental: Bovine skin gelatin (BSG), dimethyl sulfoxide (DMSO), Pluronic F-127 and tris(2-carboxyethyl)phosphine hydrochloride solution (TCEP) were purchased from Sigma-Aldrich (St. Louis, MO) at the highest level of purity possible. […] DNA strands were annealed by heating to 95° C. for 5 minutes followed by slow cooling to room temperature. Compounds in 100% DMSO (0.1 μl) were spotted into a 384-well white polystyrene Optiplate-384 (Perkin Elmer; Waltham, MA) assay plate using a LabCyte Echo 550 (Agilent; Santa Clara, CA). DMSO (0.1 μl) was added to columns 12, rows A-H and column 24, rows I-P for the maximum signal control. […] Compounds/DMSO were preincubated for 15 minutes at 25° C. with 5 μl 2×WRN (BV08), prepared as described below, in assay buffer containing 20 mM Bicine (pH=7.5), 1 mM MgCl2, 10 mM KCl, 0.1% Pluronic F-127, 0.005% BSG, 1 mM TCEP. The reaction was initiated by the addition of 5 μl 2× substrate mixture in assay buffer and incubated for 60 minutes at 25° C. The final concentrations of the assay components were 0.15 nM WRN, 5 μM ATP, and 0.1 nM DNA duplex. The final DMSO concentration was 1% and the reference compound concentration (NSC-617145) used for the minimal signal control was 20 μM. The reaction was stopped by the addition of the ADP-Glo Kit components (Promega; Madison, WI) as directed and the relative luminescence units (RLU) were read on an Envision 2104 (Perkin Elmer; Waltham, MA). % inhibition calculation:
[formula] • Where RLU=relative luminescence units, sample=signal in sample well, and MIN and MAX are the respective minimum and maximum signal controls.
[formula] • Where top and bottom are normally allowed to float but may be fixed at 100 or 0 respectively in a 3-parameter fit. Y is the % inhibition and X is the compound concentration.
Molecular Biology and virus production. […] The baculovirus from the expression plasmid WRN—BV08 was generated from transfection and amplification following the manufacturer's instructions.
Sf9 cells grown in SF900II media were infected with 1:200 WRN—BV08 P2 virus and incubated for protein expression for 72 h at 27° C. The WRN protein was purified using the following protocol. The cell pellets were thawed and resuspended in buffer A (50 mM Tris, pH 7.5, 500 mM NaCl, 1 mM TCEP, 10% Glycerol) supplemented with 0.5% CHAPS, 1 mM PMSF, 1 μg/ml Leupeptin, 1 μg/ml Pepstatin, and the Pierce Universal Nuclease and cocktail tablet. Cleared lysates were loaded onto a Ni Sepharose™ excel column and washed with buffer A and bound protein was eluted with buffer A supplemented with 300 mM imidazole. The eluted protein was dialyzed against buffer A and digested by His-tagged TEV (1:5 ratio) overnight at 4° C. ZnCl2 was added into the sample at final 15 μM before loading onto a second Ni Sepharose™ excel column. Untagged WRN protein was eluted from the column with buffer A supplemented with 20 mM imidazole, dialyzed overnight into buffer B (50 mM Tris, pH 7.5, 1 mM TCEP, 10% Glycerol) supplemented with 150 mM NaCl and loaded onto a Heparin column. Proteins were eluted with a step gradient of buffer B supplemented with 150 mM, 200 mM, 300 mM and 500 mM NaCl. WRN containing fractions were pooled and concentrated prior to loading on to size exclusion chromatography using a HiLoad 16/600 Superdex™ 200 pg column (GE Healthcare) in buffer C (20 mM HTEPES, pH 7.5, 250 mM NaCl, 0.25 mM TCEP, […]).

[3] = HCT116 cells, 24 h compound incubation

Compound	EC50 [1, 3]	IC50 [2]	also measured
CCc1c(N2CCN(C(=O)c3ncnc(C)c3O)C3CCC32)c(=O)c2nc(N(C)C)cnc2n1CC(=O)Nc1ccc(C(F)(F)F)cc1Cl (racemic) [I-34, rac-N-(2-chloro-4-(trifluoromethyl)phenyl)-2-(2-(dimethylamino)-6-ethyl-7-(5-(5-hydroxy-6-methylpyrimidine-4-carbonyl)-2,5-diazabicyclo[4.2.0]octan-2-yl)-8-oxopyrido[2,3-b]pyrazin-5(8H)-yl)acetamide]	< 500 nM		
CCc1c(N2CCN(C(=O)c3ncnc(C)c3O)[C@H]3CC[C@H]32)c(=O)c2nc(N(C)C)cnc2n1CC(=O)Nc1ccc(C(F)(F)F)cc1Cl (racemic) [I-106, rac-N-(2-chloro-4-(trifluoromethyl)phenyl)-2-(2-(dimethylamino)-6-ethyl-7-(5-(5-hydroxy-6-methylpyrimidine-4-carbonyl)-2,5-diazabicyclo[4.2.0]octan-2-yl)-8-oxopyrido[2,3-b]pyrazin-5(8H)-yl)acetamide]	500 to 2000 nM		
CCc1c(N2CCN(C(=O)c3ncnc(C)c3O)[C@@H]3CC[C@H]32)c(=O)c2nc(N(C)C)cnc2n1CC(=O)Nc1ccc(C(F)(F)F)cc1Cl (single isomer, unassigned) [I-39, N-(2-chloro-4-(trifluoromethyl)phenyl)-2-(2-(dimethylamino)-6-ethyl-7-(−5-(5-hydroxy-6-methylpyrimidine-4-carbonyl)-2,5-diazabicyclo[4.2.0]octan-2-yl)-8-oxopyrido[2,3-b]pyrazin-5(8H)-yl)acetamide]	2000 to 5000 nM		
CCc1c(N2CCN(C(=O)c3ncnc(C)c3O)[C@H]3CC[C@@H]32)c(=O)c2nc(N(C)C)cnc2n1CC(=O)Nc1ccc(C(F)(F)F)cc1Cl (single isomer, unassigned) [I-40, N-(2-chloro-4-(trifluoromethyl)phenyl)-2-(2-(dimethylamino)-6-ethyl-7-(−5-(5-hydroxy-6-methylpyrimidine-4-carbonyl)-2,5-diazabicyclo[4.2.0]octan-2-yl)-8-oxopyrido[2,3-b]pyrazin-5(8H)-yl)acetamide]	< 500 nM		
CCc1c(N2CCN(C(=O)c3ncnc(C)c3O)C[C@@H]2C)c(=O)c2nc(N3CC[C@@H]4C[C@@H]43)cnc2n1CC(=O)Nc1ccc(C(F)(F)F)cc1Cl (single isomer, unassigned) [I-193]		≤ 5 nM	
CCc1c(N2CCN(C(=O)c3ncnc(C)c3O)[C@H](C)[C@@H]2C)c(=O)c2nc(N(C)C)cnc2n1CC(=O)Nc1ccc(C(F)(F)F)cc1Cl (single isomer, unassigned) [I-198, N-(2-chloro-4-(trifluoromethyl)phenyl)-2-(2-(dimethylamino)-6-ethyl-7-(4-(5-hydroxy-6-methylpyrimidine-4-carbonyl)-2,3-dimethylpiperazin-1-yl)-8-oxopyrido[2,3-b]pyrazin-5(8H)-yl)acetamide]		5 to 50 nM	
CCc1c(N2C[C@H]3CC[C@@H]2CN3C(=O)c2ncnc(C)c2O)c(=O)c2nc(N(C)C)cnc2n1CC(=O)Nc1ccc(C(F)(F)F)cc1Cl (single isomer, unassigned) [I-248, N-(2-chloro-4-(trifluoromethyl)phenyl)-2-(2-(dimethylamino)-6-ethyl-7-(5-(5-hydroxy-6-methylpyrimidine-4-carbonyl)-2,5-diazabicyclo[2.2.2]octan-2-yl)-8-oxopyrido[2,3-b]pyrazin-5(8H)-yl)acetamide]		50 to 100 nM	
CCc1c(N2CCN(C(=O)c3ncnc(C)c3O)C3COCC32)c(=O)c2nc(N(C)C)cnc2n1CC(=O)Nc1ccc(C(F)(F)F)cc1Cl (single isomer, unassigned) [I-295, N-(2-chloro-4-(trifluoromethyl)phenyl)-2-(2-(dimethylamino)-6-ethyl-7-(4-(5-hydroxy-6-methylpyrimidine-4-carbonyl)hexahydrofuro[3,4-b]pyrazin-1(2H)-yl)-8-oxopyrido[2,3-b]pyrazin-5(8H)-yl)acetamide]		5 to 50 nM	
[2H]C([2H])([2H])N(c1cnc2c(n1)c(=O)c(N1CCN(C(=O)c3ncnc(C)c3O)[C@H]3CC[C@@H]31)c(CC)n2CC(=O)Nc1ccc(C(F)(F)F)cc1Cl)C([2H])([2H])[2H] [I-101, 2-(2-(bis(methyl-d3)amino)-6-ethyl-7-((1S,6S)-5-(5-hydroxy-6-methylpyrimidine-4-carbonyl)-2,5-diazabicyclo[4.2.0]octan-2-yl)-8-oxopyrido[2,3-b]pyrazin-5(8H)-yl)-N-(2-chloro-4-(trifluoromethyl)phenyl)acetamide]			EC50 [1]: < 500 nM
CCc1c(N2CCN(C(=O)c3ncnc(C)c3O)[C@@H](C)C2)c(=O)c2nc(N(C)C)cnc2n1CC(=O)Nc1ccc(C(F)(F)F)cc1Cl [I-173, N-[2-chloro-4-(trifluoromethyl)phenyl]-2-[2-(dimethylamino)-6-ethyl-7-[(3S)-4-(5-hydroxy-6-methylpyrimidine-4-carbonyl)-3-methylpiperazin-1-yl]-8-oxo-5H,8H-pyrido[2,3-b]pyrazin-5-yl]acetamide]		5 to 50 nM	
C#C[C@H]1CN(C(=O)c2ncnc(C)c2O)CCN1c1c(CC)n(CC(=O)Nc2ccc(C(F)(F)F)cc2Cl)c2ncc(N(C)C)nc2c1=O [I-260, N-[2-chloro-4-(trifluoromethyl)phenyl]-2-[2-(dimethylamino)-6-ethyl-7-[(2S)-2-ethynyl-4-(5-hydroxy-6-methylpyrimidine-4-carbonyl)piperazin-1-yl]-8-oxo-5H,8H-pyrido[2,3-b]pyrazin-5-yl]acetamide]		5 to 50 nM	
